Reference: paper PMC9821843, “Powerful Potential of Polyfluoroalkyl-Containing 4-Arylhydrazinylidenepyrazol-3-ones for Pharmaceuticals” (Molecules, 2022)
In brackets after ≈: the same amount, converted by molar mass. Like-named read-outs stand apart in the source and are kept apart here.

What was measured:
[1] = target: T1, equine serum butyrylcholinesterase (BChE, EC 3.1.1.8) (Equus caballus, UniProt P81908); test: Inhibition of equine serum butyrylcholinesterase (Ellman assay); type: biochemical; settings: read-out: Inhibition % at 20 µM, Equine BChE
T1 construct: equine serum butyrylcholinesterase (BChE, EC 3.1.1.8); purchased Sigma-Aldrich (Saint Louis, MO, USA); host or cells: equine serum
Source text: The following enzymes were purchased from Sigma-Aldrich (Saint Louis, MO, USA): porcine liver carboxylesterase (CES, EC 3.1.1.1), human erythrocyte acetylcholinesterase (AChE, EC 3.1.1.7) and equine serum butyrylcholinesterase (BChE, EC 3.1.1.8). Substrates for CES, AChE and BChE were 4-nitrophenyl acetate (4-NPA), acetylthiocholine iodide (ATCh) and butyrylthiocholine iodide (BTCh), respectively, and the colorimetric reagent for the AChE and BChE assays was 5,5’-dithio-bis-(2-nitrobenzoic acid) (DTNB) (Sigma-Aldrich). All the kinetic experiments were performed under standard conditions, according to the protocol of IPAC RAS for a reversible inhibitors study.
Final concentrations of reactants were 0.33 mM DTNB, 0.02 unit/mL of AChE or BChE and 1 mM of substrate (ATCh or BTCh, respectively). Reagent blanks consisted of reaction mixtures without enzyme to assess non-enzymatic hydrolysis of substrates.
Test compounds were dissolved in DMSO. Reaction mixtures contained a final DMSO concentration of 2% (v/v). […] Substrate was then added and residual enzyme activity relative to an inhibitor-free control was measured using a Bio-Rad Benchmark Plus microplate reader (Marnes-la-Coquette, France).
Measurements were performed in a Bio-Rad Benchmark Plus microplate reader. Each experiment was performed in triplicate. Plots, linear regressions and values of IC50, were determined using Origin 6.1 for Windows, OriginLab (Northampton, MA, USA).

[2] = ABTS radical cation scavenging activity assay; parameters: key to ABTS•+-scavenging activity, TEAC (trolox equivalent antioxidant capacity): TEAC = ratio of compound slope to Trolox slope vs ABTS absorbance; settings: mean ± SEM; for ABTS•+-scavenging activity, TEAC (trolox equivalent antioxidant capacity): n.a. = inactive
Protocol: Radical scavenging activity of the compounds was evaluated by the ABTS radical cation (ABTS^•+) scavenging assay by the ability of the compounds to decolorize the ABTS^•+ solution [112] with some modifications. Trolox was used as a reference standard. Edaravone was used as the comparison compound. All tested compounds and standards were dissolved in DMSO. ABTS (2,2′-azinobis-(3-ethylbenzothiazoline-6-sulfonic acid)) was purchased from Tokyo Chemical Industry Co. Ltd. (Tokyo, Japan). Potassium persulfate (di-potassium peroxdisulfate), Trolox® (6-hydroxy-2,5,7,8-tetramethychroman-2-carboxylic acid), ascorbic acid, DMSO and HPLC-grade ethanol were obtained from Sigma-Aldrich Chemical Co. Aqueous solutions were prepared using deionized water.
The solution of ABTS^•+ was produced by mixing 7 mM ABTS aqueous solution with 2.45 mM potassium persulfate aqueous solution in equal quantities and allowing them to react for 12–16 h at room temperature in the dark. Radical scavenging capacity of the compounds was analyzed by mixing 10 μL of compound with 240 μL of ABTS^•+ working solution in ethanol (100 μM final concentration), and after 1 h of incubation at 30 °C the decrease in absorbance was measured spectrophotometrically at 734 nm using a Bio-Rad xMark microplate UV/VIS spectrophotometer (Bio-Rad, Hercules, CA, USA). The compounds were tested in the concentration range of 5 × 10^–7–4 × 10^–4 M. Ethanol blanks were run in each assay. Values were obtained from five replicates of each sample and three independent experiments.
Antioxidant activity was calculated as Trolox equivalent antioxidant capacity (TEAC values), consisting of the ratio between the slopes obtained from the linear correlation for concentrations of the tested compounds and Trolox with absorbance of ABTS radical. For the test compounds, which reduce ABTS^•+ absorbance by more than 60% at 100 µM, we also determined IC50 values as 50% reduction of the ABTS radical. The calculations were carried out using Origin 6.1 for Windows. Results were presented as mean ± SEM, calculated using GraphPad Prism version 6.05 for Windows, GraphPad Software.

[3] = Oxygen radical absorbance capacity (ORAC-FL) assay; settings: n.a. = inactive; i.t.s. = interferes with test system
Source text: We evaluated the primary antioxidant activity of synthesized 4-AHPs 5–9 in comparison with their non-fluorinated analogues 9a,b using three standard tests: ABTS, FRAP (ferric reducing antioxidant power) and ORAC (oxygen radical absorbance capacity) assays. The ABTS assay evaluates the binding of a model ABTS radical cation (ABTS^•+), which is realized by the mechanism of single electron transfer (SET) and/or hydrogen atom transfer (HAT). The FRAP assay measures the ability of compounds to reduce the ferric 2,4,6-tripyridyl-s-triazine complex [Fe(TPTZ)2]^3+ to [Fe(TPTZ)2]^2+, which occurs exclusively by the SET mechanism. The ORAC-FL assay measures the oxidative degradation of the fluorescent molecule (FL – fluorescein) after being mixed with a free peroxyl radical generator such as 2,2′-azobis-(2-methylpropionamidine) dihydrochloride (AAPH) in the presence of antioxidant (tested compound). The ORAC-FL test describes the antioxidants’ ability to yield the hydrogen atom and, consequently, it is a HAT-based assay. Trolox was used in all tests as a reference antioxidant: the antioxidant activity of the test compounds was referred to the activity of Trolox. The well-known antioxidant Edaravone was also used for comparison.
The ORAC assay was performed according to the known method, with minor variations and described by us recently.

[4] = test system: Neisseria gonorrhoeae ATCC 49226/NCTC 12700; test: Antibacterial activity against Neisseria gonorrhoeae; type: cell-based; settings: read-out: MIC against Neisseria gonorrhoeae
Protocol: Antibacterial activity testing was done on the growth medium Difco GC medium base (Becton Dickinson, Franklin Lakes, NJ, USA) supplemented with 1% IsoVitaleX. Dilutions of chemical compounds were carried out in the range of 250–0.12 μg/mL in 24 well sterile plates (Sarstedt, Germany). Daily cultures of control bacterial strains were identified on a VITEK MS analyzer (BioMérieux, Marcy-l’Étoile, France) by MALDI-TOF mass spectrometry. The inoculation dose of N. gonorrhoeae inoculum was 10^5 CFU/mL.

[5] = Acute toxicity evaluation in mice (ip); settings: CD-1, mouse, in vivo, 300 mg/kg
Protocol: The toxicity evaluation was performed on CD-1 mice. […] The tested compounds in 1% starch mucilage were injected intraperitoneally into three mice. Then, animals were observed during 14 days, the number of deaths was counted and % of viability calculated.

Sprague-Dawley (SD) rats = test: Hot plate test (analgesic activity); type: in vivo; settings: ip; for change in vivo at 15 mg/kg: Rattus norvegicus
Protocol: The hot plate test was conducted according to established guidelines on Sprague-Dawley (SD) rats (3 male and 3 female rodents per group). The compounds were intraperitoneally administered in the form of suspensions in 1% starch mucilage. Negative control group animals received vehicle only (1% starch mucilage). Diclofenac sodium (Hemofarm, Vršac, Serbia, 10 mg/kg in 1% starch mucilage solution) or metamizole sodium (PAO Biosynthesis, Sun Pharma, Penza, Russia, 15 mg/kg in 1% starch mucilage solution) were used as reference drugs. One and two hours after the injection, rats were placed on an electrically heated to 50 °C plate (Hot plate 60,200 series, TSE-systems, Bad Homburg, Germany) in a Plexiglas cylindrical restrainer (19 cm diameter × 30 cm). The nociceptive response time was measured by observing the appearance of rats’ movements (e.g., jumping, hind paw licking or shaking). Maximal cutoff time was set as 30 s regardless of the response in order to preclude skin damage.
Differences between the values of the latency period for the treated (experimental) and control groups of animals were considered significant at p ≤ 0.05.

[6] = test system: Microsporum canis RCPF F 1643/1585; test: Antifungal susceptibility testing, M. canis; settings: Microsporum canis, RCPFF1643/1585, read-out: MIC for fungi strains inhibition, M. canis
Source text: (§1) The solvent was DMSO. […] In each test, a growth control and a sterility control were used.

[7] = test system: Trichophyton rubrum RCPF F 1408; test: Antifungal susceptibility testing, T. rubrum; settings: Trichophyton rubrum, RCPFF1408, read-out: MIC for fungi strains inhibition, T. rubrum
Source text: as §1

[8] = test system: Candida albicans RCPF Y 401/NCTC 885/653; test: Antifungal susceptibility testing, C. albicans; settings: NCTC885, read-out: MIC for fungi strains inhibition, C. albicans
Source text: as §1

[9] = test system: Epidermophyton floccosum RCPF F 1659/17; test: Antifungal susceptibility testing, E. floccosum; settings: Epidermophyton floccosum, RCPFF1659/17, read-out: MIC for fungi strains inhibition, E. floccosum
Source text: as §1

[10] = hot plate test, rats, dose 15 mg/kg, 1 h, n.a. = inactive (p > 0.05), read-out: Latent Period Prolongation, % 1 h
[11] = hot plate test, rats, dose 15 mg/kg, 2 h, n.a. = inactive (p > 0.05), read-out: Latent Period Prolongation, % 2 h

T1 sequence (P81908 whole entry): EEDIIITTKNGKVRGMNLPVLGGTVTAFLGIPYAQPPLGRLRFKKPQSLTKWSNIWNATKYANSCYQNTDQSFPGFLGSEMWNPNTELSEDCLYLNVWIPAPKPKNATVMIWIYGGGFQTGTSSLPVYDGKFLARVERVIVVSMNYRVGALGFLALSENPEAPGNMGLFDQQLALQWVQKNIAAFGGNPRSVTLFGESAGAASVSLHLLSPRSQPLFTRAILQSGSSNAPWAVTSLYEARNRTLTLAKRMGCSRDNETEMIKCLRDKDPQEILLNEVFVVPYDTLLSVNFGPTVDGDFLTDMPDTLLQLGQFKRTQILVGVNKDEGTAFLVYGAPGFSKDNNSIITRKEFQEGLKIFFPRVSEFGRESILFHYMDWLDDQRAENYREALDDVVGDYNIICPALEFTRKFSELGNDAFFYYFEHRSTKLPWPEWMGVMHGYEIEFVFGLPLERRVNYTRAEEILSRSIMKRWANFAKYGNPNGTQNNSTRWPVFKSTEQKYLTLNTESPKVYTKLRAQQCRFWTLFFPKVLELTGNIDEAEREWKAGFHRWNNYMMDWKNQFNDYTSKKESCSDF

Compound | inhibition at 20 µM [1] [%] | ABTS•+-scavenging activity, TEAC (trolox equivalent antioxidant capacity) [2] | ORAC-FL (TE, antioxidant activity in Trolox equivalents) [3] | MIC [4] [µg/mL] | survival at 14 days [5] [%] | change in vivo at 15 mg/kg (Sprague-Dawley (SD) rats; [10]) [%] | change in vivo at 15 mg/kg (Sprague-Dawley (SD) rats; [11]) [%] | MIC [6] [µg/mL] | MIC [7] [µg/mL] | MIC [8] [µg/mL] | MIC [9] [µg/mL] | analgesic activity in the hot plate test (Sprague-Dawley (SD) rats; SD rats, dose 15 mg/kg, 1 and 2 h) | IC50 [2] [µM] | change in vivo at 15 mg/kg (Sprague-Dawley (SD) rats; 1 h, read-out: Latent Period Prolongation, % 1 h) [%] | change in vivo at 15 mg/kg (Sprague-Dawley (SD) rats; 2 h, read-out: Latent Period Prolongation, % 2 h) [%]
O=C1/C(=N\Nc2ccccc2)C(C(F)(F)F)=NN1c1ccccc1 [5e, (4Z)-2-Phenyl-4-(2-phenylhydrazinylidene)-5-(trifluoromethyl)-2,4-dihydro-3H-pyrazol-3-one] | 5.1 ± 0.9 | 0.02 | i.t.s. | > 250 | 100 | 100 | 129 | 200 (≈ 602 µM) | 200 (≈ 602 µM) | > 200 | 200 (≈ 602 µM) |  |  |  | 
O=C1/C(=N\Nc2c(Cl)cccc2Cl)C(C(F)(F)F)=NN1c1ccccc1 [5j, (4Z)-4-[2-(2,6-Dichlorophenyl)hydrazinylidene]-2-phenyl-5-(trifluoromethyl)-2,4-dihydro-3H-pyrazol-3-one] | 7.1 ± 1.2 |  |  | 31.2 (≈ 77.8 µM) | 100 |  |  | > 200 | > 200 | > 200 | > 200 | inactive |  |  | 
NS(=O)(=O)c1ccc(N/N=C2\C(=O)N(c3ccccc3)N=C2C(F)(F)F)cc1 [5n, (4Z)-4-(2-[4-(Aminosulfonyl)phenyl]hydrazinylidene)-2-phenyl-5-(trifluoromethyl)-2,4-dihydro-3H-pyrazol-3-one] | 3.5 ± 0.6 |  | i.t.s. |  | 100 |  | 84 |  |  |  |  |  |  |  | 
Cc1ccc(N/N=C2\C(=O)N(c3ccc(C)cc3)N=C2C(F)(F)F)cc1 [5r, (4Z)-2-(4-Methylphenyl)-4-[2-(4-methylphenyl)hydrazinylidene]-5-(trifluoromethyl)-2,4-dihydro-3H-pyrazol-3-one] | 4 ± 1 | 0.13 ± 0.007 |  | > 250 | 100 | 63.2 | 74.2 | > 200 | > 200 | > 200 | > 200 |  |  |  | 
O=C1/C(=N\Nc2cccc(Cl)c2)C(C(F)(F)C(F)(F)F)=NN1c1ccccc1 [6d, (4Z)-4-[2-(3-Chlorophenyl)hydrazinylidene]-5-(pentafluoroethyl)-2-phenyl-2,4-dihydro-3H-pyrazol-3-one] | 7.8 ± 1.2 |  |  | 15.6 (≈ 37.4 µM) | 100 | 93 | 63 | > 200 | > 200 | > 200 | 200 (≈ 480 µM) |  |  |  | 
Cc1ccc(N/N=C2\C(=O)NN=C2C(F)(F)C(F)(F)C(F)(F)C(F)(F)F)cc1 [8a, (4Z)-5-(Nonafluorobutyl)-4-[2-(4-methylphenyl)hydrazinylidene]-2,4-dihydro-3H-pyrazol-3-one] |  | 0.43 ± 0.03 | 2.33 ± 0.15 | 250 (≈ 595 µM) | 100 |  |  | > 200 | > 200 | > 200 | > 200 |  | 48.3 ± 2.2 | 62.9 | 40.4
CN[C@@H]1[C@H](O)[C@H](NC)[C@H]2O[C@@]3(O)C(=O)C[C@@H](C)O[C@H]3O[C@@H]2[C@H]1O [Spectinomycin, reference compound] |  |  |  | 15.6 (≈ 46.9 µM) |  |  |  |  |  |  |  |  |  |  | 
Cc1c(N(C)CS(=O)(=O)O)c(=O)n(-c2ccccc2)n1C [metamizole, reference compound] |  |  |  |  | 100 | 34.2 ± 11.3 | 64.6 ± 22.5 |  |  |  |  |  |  |  | 
